Results taken from publication PMC2698043 (Journal of medicinal chemistry, 2009).

How the values were obtained:
human PNP [1] = target: T1, human PNP (Homo sapiens, UniProt P00491); test: biochemical
blood PNP = blood PNP (Mus musculus, UniProt P23492); details: mice
human PNP [2] = target: T1, human PNP

T1 sequence (P00491 whole entry): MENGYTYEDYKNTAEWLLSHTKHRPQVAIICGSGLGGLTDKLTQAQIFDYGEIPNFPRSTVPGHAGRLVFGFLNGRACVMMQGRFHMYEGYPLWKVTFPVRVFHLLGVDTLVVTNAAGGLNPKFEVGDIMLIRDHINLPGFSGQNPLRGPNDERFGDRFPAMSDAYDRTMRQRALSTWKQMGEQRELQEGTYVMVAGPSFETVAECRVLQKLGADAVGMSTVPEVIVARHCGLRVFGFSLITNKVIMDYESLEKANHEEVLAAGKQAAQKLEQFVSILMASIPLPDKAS
Chain of blood PNP (P23492 whole entry): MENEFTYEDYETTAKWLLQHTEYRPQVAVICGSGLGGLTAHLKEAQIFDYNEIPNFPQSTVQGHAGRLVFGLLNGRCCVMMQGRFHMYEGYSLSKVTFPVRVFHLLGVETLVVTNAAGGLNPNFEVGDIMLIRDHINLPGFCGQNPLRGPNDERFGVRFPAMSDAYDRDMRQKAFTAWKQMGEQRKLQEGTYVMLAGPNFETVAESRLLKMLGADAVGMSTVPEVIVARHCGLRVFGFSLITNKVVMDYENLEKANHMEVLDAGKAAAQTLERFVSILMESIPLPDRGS

Row | SMILES | Kd (human PNP [1]) [pM] | time to complete inhibition of PNP catalytic activity (blood PNP; single 50 nmol dose, i.p. injection) [min] | inhibition of blood PNP catalytic activity (blood PNP; single oral dose, for a period of 25 days) [%] | times more active inhibitor than 9-deazahypoxanthine analogue 11 (human PNP [2])
1 | O=c1[nH]cnc2c(CNC(CO)CO)c[nH]c12 [Compound 10] | 5.2 | ≤ 20 | > 50 | –
2 | Nc1nc2c(CNC(CO)CO)c[nH]c2c(=O)[nH]1 [Compound 8, 2-Amino-7-{[(1,3-dihydroxypropan-2-yl)amino]methyl}-3,5-dihydro-4H-pyrrolo[3,2-d]pyrimidin-4-one] | 2.1 | – | – | –
3 | Nc1nc2c(CN[C@H](CO)[C@H](O)CO)c[nH]c2c(=O)[nH]1 [Compound 9, 2-Amino-7-({[(2R,3S)-1,3,4-trihydroxybutan-2-yl]amino}methyl)-3,5-dihydro-4Hpyrrolo[3,2-d]pyrimidin-4-one] | – | – | – | 2 – 3 times
